ChEMBL document CHEMBL1150587, “Evaluation of the potential cancer chemotherapeutic efficacy of natural product isolates employing in vivo hollow fiber tests” (J Nat Prod, 2002)
Calls of active or inactive are those of the source. The calls are words filed in the database; no cut-off is given here.

Assays:
[1] = test system: SK-MEL-2; assay: Growth inhibition of human SK-MEL-2 cells implanted subcutaneously to NCr nu/nu mouse at 7.13 to 28.5 umol/kg, ip administered from day 3 to 6 after implantation measured on day 7 by MTT-based hollow-fiber test; format: functional
[2] = test system: SW626; assay: Cytotoxicity against human SW626 cells after 72 hrs by SRB assay; format: functional, cell-based; settings: SW626, 72 h
[3] = test system: P388; assay: Cytotoxicity against mouse P388 cells after 72 hrs by SRB assay; format: functional, cell-based; settings: P388, 72 h
[4] = test system: LNCaP; assay: Growth inhibition of human LNCAP cells implanted intraperitoneally to NCr nu/nu mouse at 7.13 to 28.5 umol/kg, ip administered from day 3 to 6 after implantation measured on day 7 by MTT-based hollow-fiber test; format: functional
[5] = test system: Lu1; assay: Growth inhibition of human Lu1 cells implanted intraperitoneally to NCr nu/nu mouse at 7.13 to 28.5 umol/kg, ip administered from day 3 to 6 after implantation measured on day 7 by MTT-based hollow-fiber test; format: functional
[6] = test system: P388; assay: Growth inhibition of mouse P388 cells implanted intraperitoneally to NCr nu/nu mouse at 7.13 to 28.5 umol/kg, ip administered from day 3 to 6 after implantation measured on day 7 by MTT-based hollow-fiber test; format: functional
[7] = test system: SK-MEL-2; assay: Growth inhibition of human SK-MEL-2 cells implanted intraperitoneally to NCr nu/nu mouse at 7.13 to 28.5 umol/kg, ip administered from day 3 to 6 after implantation measured on day 7 by MTT-based hollow-fiber test; format: functional
[8] = test system: Mus musculus; assay: Toxicity in NCr nu/nu mouse subcutaneously implanted with human KB cells assessed as change in body weight at 7.13 umol/kg, ip administered on day 10, 13, 16, 20 of implantation; format: organism-based; settings: in vivo
[9] = test system: Mus musculus; assay: Toxicity in tumor cell implanted NCr nu/nu mouse assessed as body weight change at 7.13 umol/kg, ip administered from day 3 to 6 after implantation measured on day 7; format: organism-based; settings: in vivo
[10] = test system: KB; assay: Growth inhibition of human KB cells implanted subcutaneously to NCr nu/nu mouse assessed as tumor size at 7.13 to 72.6 umol/kg, ip administered on day 10, 13, 16, 20 of implantation; format: functional, organism-based
[11] = test system: LNCaP; assay: Growth inhibition of human LNCAP cells implanted subcutaneously to NCr nu/nu mouse at 7.13 to 28.5 umol/kg, ip administered from day 3 to 6 after implantation measured on day 7 by MTT-based hollow-fiber test; format: functional
[12] = test system: Mus musculus; assay: Toxicity in tumor cell implanted NCr nu/nu mouse assessed as body weight change at 14.3 umol/kg, ip administered from day 3 to 6 after implantation measured on day 7; format: organism-based; settings: in vivo
[13] = test system: Mus musculus; assay: Toxicity in tumor-implanted NCr nu/nu mouse at 57.5 umol/kg, ip administered from day 3 to 6 after implantation measured on day 7 by hollow-fiber test; format: organism-based; settings: in vivo
[14] = test system: Lu1; assay: Growth inhibition of human Lu1 cells implanted subcutaneously to NCr nu/nu mouse at 7.13 to 28.5 umol/kg, ip administered from day 3 to 6 after implantation measured on day 7 by MTT-based hollow-fiber test; format: functional
[15] = test system: Mus musculus; assay: Toxicity in NCr nu/nu mouse subcutaneously implanted with human KB cells assessed as mortality at 14.3 umol/kg, ip administered on day 10, 13, 16, 20 of implantation; format: organism-based; settings: in vivo
[16] = test system: MCF7; assay: Growth inhibition of human MCF7 cells implanted intraperitoneally to NCr nu/nu mouse at 7.13 to 28.5 umol/kg, ip administered from day 3 to 6 after implantation measured on day 7 by MTT-based hollow-fiber test; format: functional
[17] = test system: Mus musculus; assay: Toxicity in NCr nu/nu mouse subcutaneously implanted with human KB cells assessed as change in body weight at 28.5 umol/kg, ip administered on day 10, 13, 16, 20 of implantation; format: organism-based; settings: in vivo
[18] = test system: Mus musculus; assay: Toxicity in NCr nu/nu mouse subcutaneously implanted with human KB cells assessed as mortality at 28.5 umol/kg, ip administered on day 10, 13, 16, 20 of implantation; format: organism-based; settings: in vivo
[19] = test system: Mus musculus; assay: Toxicity in tumor cell implanted NCr nu/nu mouse assessed as body weight change at 28.5 umol/kg, ip administered from day 3 to 6 after implantation measured on day 7; format: organism-based; settings: in vivo
[20] = test system: Lu1; assay: Growth inhibition of ip dosed intraperitoneally implanted human Lu1 cells to NCr nu/nu mouse administered from day 3 to 6 after implantation measured on day 7 by MTT-based hollow-fiber test; format: functional, organism-based
[21] = test system: MCF7; assay: Cytotoxicity against human MCF7 cells after 72 hrs by SRB assay; settings: MCF7, 72 h
[22] = test system: KB; assay: Cytotoxicity against human KB cells after 72 hrs by SRB assay; format: functional, cell-based
[23] = test system: Col2; assay: Cytotoxicity against human Col2 cells after 72 hrs by SRB assay; format: functional, cell-based; settings: Col2, 72 h
[24] = test system: SW626; assay: Growth inhibition of human SW626 cells implanted intraperitoneally to NCr nu/nu mouse at 7.13 to 28.5 umol/kg, ip administered from day 3 to 6 after implantation measured on day 7 by MTT-based hollow-fiber test; format: functional
[25] = test system: SK-MEL-2; assay: Cytotoxicity against human SK-MEL-2 cells after 72 hrs by SRB assay; format: functional, cell-based; settings: SK-MEL-2, 72 h
[26] = test system: SW626; assay: Growth inhibition of human SW626 cells implanted subcutaneously to NCr nu/nu mouse at 7.13 to 28.5 umol/kg, ip administered from day 3 to 6 after implantation measured on day 7 by MTT-based hollow-fiber test; format: functional
[27] = test system: Mus musculus; assay: Toxicity in NCr nu/nu mouse subcutaneously implanted with human KB cells assessed as change in body weight at 14.3 umol/kg, ip administered on day 10, 13, 16, 20 of implantation; format: organism-based; settings: in vivo
[28] = test system: Mus musculus; assay: Toxicity in NCr nu/nu mouse subcutaneously implanted with human KB cells assessed as mortality at 7.13 umol/kg, ip administered on day 10, 13, 16, 20 of implantation; format: organism-based; settings: in vivo
[29] = test system: KB; assay: Growth inhibition of human KB cells implanted subcutaneously to NCr nu/nu mouse at 7.13 to 28.5 umol/kg, ip administered from day 3 to 6 after implantation measured on day 7 by MTT-based hollow-fiber test; format: functional
[30] = test system: P388; assay: Growth inhibition of mouse P388 cells implanted subcutaneously to NCr nu/nu mouse at 7.13 to 28.5 umol/kg, ip administered from day 3 to 6 after implantation measured on day 7 by MTT-based hollow-fiber test; format: functional
[31] = test system: MCF7; assay: Growth inhibition of human MCF7 cells implanted subcutaneously to NCr nu/nu mouse at 7.13 to 28.5 umol/kg, ip administered from day 3 to 6 after implantation measured on day 7 by MTT-based hollow-fiber test; format: functional
[32] = test system: KB; assay: Growth inhibition of human KB cells implanted intraperitoneally to NCr nu/nu mouse at 7.13 to 28.5 umol/kg, ip administered from day 3 to 6 after implantation measured on day 7 by MTT-based hollow-fiber test; format: functional
[33] = test system: Mus musculus; assay: Toxicity in tumor-implanted NCr nu/nu mouse at 144 umol/kg, ip administered from day 3 to 6 after implantation measured on day 7 by hollow-fiber test; format: organism-based; settings: in vivo
[34] = Cytotoxicity against human KBV1 cells after 72 hrs by SRB assay; format: functional, cell-based; settings: KB-V1, 72 h
[35] = test system: LNCaP; assay: Growth inhibition of ip dosed intraperitoneally implanted human LNCAP cells to NCr nu/nu mouse administered from day 3 to 6 after implantation measured on day 7 by MTT-based hollow-fiber test; format: functional, organism-based
[36] = test system: Lu1; assay: Cytotoxicity against human Lu1 cells after 72 hrs by SRB assay; format: functional, cell-based; settings: Lu1, 72 h
[37] = Cytotoxicity against human BC1 cells after 72 hrs by SRB assay; settings: BC1, 72 h
[38] = test system: LNCaP; assay: Cytotoxicity against human LNCAP cells after 72 hrs by SRB assay; format: functional, cell-based

## C[C@@H]1CC[C@@]2(OC1)O[C@H]1C[C@H]3[C@@H]4CC=C5C[C@@H](O[C@@H]6O[C@H](CO)[C@@H](O[C@@H]7O[C@@H](C)[C@H](O)[C@@H](O)[C@H]7O)[C@H](O)[C@H]6O[C@@H]6O[C@@H](C)[C@H](O)[C@@H](O)[C@H]6O)CC[C@]5(C)[C@H]4CC[C@]3(C)[C@H]1[C@@H]2C [DIOSCIN]
[1]
  inhibition (INH): 0%
[2]
  IC50: 3.1 µM
[3]
  IC50: 21.9 µM
[4]
  inhibition (INH): 36.9%
[5]
  inhibition (INH): 24.6%
[6]
  inhibition (INH): 0%
[7]
  inhibition (INH): 2.3%
[8]
  Activity: 7.1%
[9]
  Activity: 0.8 g
[10]
  Activity: inactive
[11]
  inhibition (INH): 35.9%
[12]
  Activity: 0.45 g
[13]
  Activity: Toxic
[14]
  inhibition (INH): 0%
[15]
  Activity: Non-toxic
[16]
  inhibition (INH): 0%
[17]
  Activity: 8.6%
[18]
  Activity: Non-toxic
[19]
  Activity: -0.65 g
[20]
  Activity: Dose-dependent effect
[21]
  IC50: 22.4 µM
[22]
  IC50: 20.7 µM
[23]
  IC50: 2.8 µM
[24]
  inhibition (INH): 4.1%
[25]
  IC50: 1.8 µM
[26]
  inhibition (INH): 8.7%
[27]
  Activity: 8.4%
[28]
  Activity: Non-toxic
[29]
  inhibition (INH): 3.6%
[30]
  inhibition (INH): 0%
[31]
  inhibition (INH): 7.3%
[32]
  inhibition (INH): 79%
[33]
  Activity: Toxic
[34]
  IC50: > 23 µM
[35]
  Activity: Dose-dependent effect
[36]
  IC50: 1.2 µM
[37]
  IC50: 3.8 µM
[38]
  IC50: 1.7 µM
